The results in this text go back to publication PMC12608155, “Discovery of Potential Antileishmanial Compounds Through Phenotypic Screening of an Alkaloid Library” (Molecules, 2025).

The term inhibition denotes the change of the read-out against control, counted positive when it falls.

In the test the test system is L. donovani IRFP axenic amastigotes. Description: Primary single-concentration screening on axenic amastigotes, growth inhibition at 72 h. The settings on record: for inhibition at 1 µM / inhibition at 10 µM: Leishmania donovani. The format is cell-based, Leishmania donovani.
Where [1] appears, read: 1 µM, experiment 1, 72 h, axenic amastigotes, read-out: Growth Inhibition (%) at 72h, 1 µM_Exp1.
Setting [2] is: 1 µM, experiment 2, 72 h, axenic amastigotes, read-out: Growth Inhibition (%) at 72h, 1 µM_Exp2.
The mark [3] stands for this setting: 10 µM, experiment 1, 72 h, axenic amastigotes, read-out: Growth Inhibition (%) at 72h, 10 µM_Exp1.
Where [4] appears, read: 10 µM, experiment 2, 72 h, axenic amastigotes, read-out: Growth Inhibition (%) at 72h, 10 µM_Exp2.
The mark [5] stands for this setting: 1 µM, experiment 1, 72 h, axenic amastigotes.
Where [6] appears, read: 1 µM, experiment 2, 72 h, axenic amastigotes.
[7] abbreviates: 10 µM, experiment 1, 72 h, axenic amastigotes.
Where [8] appears, read: 10 µM, experiment 2, 72 h, axenic amastigotes.

Read-outs that look alike come from different tables or passages of the source.

In the case of `O=C(C[C@H]1NCCC[C@@H]1O)Cn1cnc2ccccc2c1=O` [Febrifugine], the inhibition at 1 µM runs as follows: under setting [1], 15.4%; under setting [2], -25.3%. The inhibition at 10 µM by setting is: under setting [3], 99.8%; under setting [4], 98.2%.
Take `Br.O=C(CC1NCCCC1O)Cn1cnc2cc(Br)c(Cl)cc2c1=O` (stereo not shown) [Halofuginone (hydrobromide)]: the “Growth Inhibition (%) at 72h, 1 µM_Exp1” value under setting [5] was determined as 99.34%. In addition, the “Growth Inhibition (%) at 72h, 1 µM_Exp2” value under setting [6] is recorded as 83.65%. Moreover, the “Growth Inhibition (%) at 72h, 10 µM_Exp1” value under setting [7] amounted to 100.16%. The “Growth Inhibition (%) at 72h, 10 µM_Exp2” value under setting [8] stood at 98.51%.
As to `O=C(CC1NCCCC1O)Cn1cnc2cc(Br)c(Cl)cc2c1=O` (stereo not shown) [Halofuginone], the inhibition at 1 µM stood at 93.7% under setting [1] and 90.9% under setting [2]. In addition, the inhibition at 10 µM under setting [3] came out at 97.7% and the inhibition at 10 µM under setting [4] turned out to be 98.2%.
The like results for `COC(=O)C[C@](O)(CCC(C)(C)O)C(=O)O[C@@H]1C(OC)=C[C@]23CCCN2CCc2cc4c(cc2[C@H]13)OCO4` [Harringtonine] were, in that order, -25.3%, 3.29%, 92.5% and 92.2%.
The like results for `COC(=O)C[C@](O)(CCCC(C)(C)O)C(=O)O[C@@H]1C(OC)=C[C@]23CCCN2CCc2cc4c(cc2[C@H]13)OCO4` [Homoharringtonine] were, in that order, 4.68%, -119%, 89.9% and 91.5%.
For `O=C(O)CNCC(=O)O` [Iminodiacetic acid], in that order: -16.6%, -73%, -16.9% and 79.9%.
As for `O=C(O)CCCc1c[nH]c2ccccc12` [Indole-3-butyric acid], the inhibition at 1 µM under setting [1] was -6.27% and the inhibition at 1 µM under setting [2] turned out to be 14.8%. Further, the inhibition at 10 µM under setting [3] is 70.2% and the inhibition at 10 µM under setting [4] was found to be 84%.
As for `CN1[C@@H](CC(=O)c2ccccc2)CCC[C@H]1CC(=O)c1ccccc1` [Lobelanine], the “Growth Inhibition (%) at 72h, 1 µM_Exp1” value under setting [5] is -73.70%. Moreover, the “Growth Inhibition (%) at 72h, 1 µM_Exp2” value under setting [6] came out at 10.47%. For the same molecule, the “Growth Inhibition (%) at 72h, 10 µM_Exp1” value under setting [7] was 75.56%. For the same molecule, the “Growth Inhibition (%) at 72h, 10 µM_Exp2” value under setting [8] worked out at 20.66%.
On to `O=C1C=CC(=O)N1` [Maleimide], for which the inhibition at 1 µM was 101% under setting [1] and 101% under setting [2]. For the same molecule, the inhibition at 10 µM by setting is: under setting [3], 101%; under setting [4], 101%.
Take `CCCCC/C=C\C/C=C\CCCCCCCC(=O)NCc1ccccc1` [N-Benzyllinoleamide]: the “Growth Inhibition (%) at 72h, 1 µM_Exp1” value under setting [5] came out at 23.06%. For the same molecule, under setting [6], the “Growth Inhibition (%) at 72h, 1 µM_Exp2” value is -24.6%. The “Growth Inhibition (%) at 72h, 10 µM_Exp1” value under setting [7] came out at 99.77%. Moreover, under setting [8], the “Growth Inhibition (%) at 72h, 10 µM_Exp2” value is recorded as 99.86%.
Take `CC/C=C\C/C=C\C/C=C\CCCCCCCC(=O)NCc1ccccc1` [N-Benzyllinolenamide]: the “Growth Inhibition (%) at 72h, 1 µM_Exp1” value under setting [5] was -37.93%. For the same molecule, the “Growth Inhibition (%) at 72h, 1 µM_Exp2” value under setting [6] is listed as -43.83%. The “Growth Inhibition (%) at 72h, 10 µM_Exp1” value under setting [7] was 99.95%. Besides, the “Growth Inhibition (%) at 72h, 10 µM_Exp2” value under setting [8] amounted to 100.85%.
For `O=C1N[C@@H]2C(=C[C@H](O)[C@@H](O)[C@H]2O)c2cc3c(c(O)c21)OCO3` [Narciclasine], in that order: -12.26%, -86.55%, 84.56% and 93.45%.
With `CCCCCCCCC(=O)NCc1ccc(O)c(OC)c1` [Nonivamide], the inhibition at 1 µM under setting [1] is 10.9% and the inhibition at 1 µM under setting [2] is -30.7%. Besides, the inhibition at 10 µM reads like this: under setting [3], 101%; under setting [4], 93.3%.
For `COc1cc(CNC(=O)CCCCCC(C)C)ccc1O` [Nordihydrocapsaicin], the “Growth Inhibition (%) at 72h, 1 µM_Exp1” value is recorded as 1.91%; the “Growth Inhibition (%) at 72h, 1 µM_Exp2” value is -21.65%; the “Growth Inhibition (%) at 72h, 10 µM_Exp1” value was 90.15%; the “Growth Inhibition (%) at 72h, 10 µM_Exp2” value is reported as 70.24%.
On to `CC(C)(O)[C@H]1O[C@H]2CC[C@@]3(C)[C@@](O)(CC[C@H]4Cc5c([nH]c6ccccc56)[C@@]43C)C2=CC1=O` [Paxilline], for which the inhibition at 1 µM worked out at 6.12% under setting [1] and 19.6% under setting [2]. Further, the inhibition at 10 µM is, setting by setting: under setting [3], 98.6%; under setting [4], 99.1%.
For `O=C(O)c1cccc2nc3ccccc3nc12` [Phenazine-1-carboxylic acid], in that order: -12.2%, -87%, 90.8% and 87.8%.
The like results for `O=C(/C=C/C=C/c1ccc2c(c1)OCO2)N1CCCCC1` [Piperine] were, in that order, 38.3%, 17.5%, -7.31% and 75.2%.
Turning to `COc1cc(/C=C/C(=O)N2CCC=CC2=O)cc(OC)c1OC` [Piperlongumine], the “Growth Inhibition (%) at 72h, 1 µM_Exp1” value under setting [5] is 99.95%. The “Growth Inhibition (%) at 72h, 1 µM_Exp2” value under setting [6] worked out at 98.63%. Further, the “Growth Inhibition (%) at 72h, 10 µM_Exp1” value under setting [7] stood at 100.21%. Besides, the “Growth Inhibition (%) at 72h, 10 µM_Exp2” value under setting [8] came out at 100.05%.
The like results for `Cc1ncc(CO)c(CO)c1O.Cl` [Pyridoxine (hydrochloride)] were, in that order, 6.77%, -86.02%, 79.17% and 65.78%.
Consider `COc1c2ccoc2nc2c(O)cccc12` [Robustine], for which the inhibition at 1 µM came out at 48.3% under setting [1] and 1.86% under setting [2]. In addition, the inhibition at 10 µM under setting [3] was 90.6% and the inhibition at 10 µM under setting [4] came out at 33.3%.
The like results for `CC[C@@]1(O)C(=O)OCc2c1cc1n(c2=O)Cc2cc3c([N+](=O)[O-])cccc3nc2-1` [Rubitecan] were, in that order, 69.8%, 36.9%, 94.4% and 89.4%.
`C[C@@H]1CC[C@@]2(NC1)O[C@H]1C[C@H]3[C@@H]4CC=C5C[C@@H](O[C@@H]6O[C@H](CO)[C@@H](O[C@@H]7O[C@@H](C)[C@H](O)[C@@H](O)[C@H]7O)[C@H](O)[C@H]6O[C@@H]6O[C@@H](C)[C@H](O)[C@@H](O)[C@H]6O)CC[C@]5(C)[C@H]4CC[C@]3(C)[C@H]1[C@@H]2C` [Solamargine]: the inhibition at 1 µM turned out to be 62.8% under setting [1] and 11.2% under setting [2]. Moreover, the inhibition at 10 µM runs as follows: under setting [3], 93.6%; under setting [4], 94.3%.
As for `CC[C@]12C=CCN3CC[C@]4(C(=C(C(=O)OC)C1)Nc1ccccc14)[C@@H]32` [Tabersonine], the inhibition at 1 µM reads like this: under setting [1], -26.2%; under setting [2], -7.79%. Further, the inhibition at 10 µM under setting [3] is 98% and the inhibition at 10 µM under setting [4] is 61.5%.
For `C[C@H]1CC[C@]2(NC1)O[C@H]1C[C@H]3[C@@H]4CC[C@H]5C[C@@H](O)CC[C@]5(C)[C@H]4CC[C@]3(C)[C@H]1[C@@H]2C` [Tomatidine], in that order: 11.2%, 18.6%, 66.9% and 75.1%.
With `O=C1c2ccccc2-n2c1nc1ccccc1c2=O` [Tryptanthrin], the inhibition at 1 µM came to 13.1% under setting [1] and 23.4% under setting [2]. The inhibition at 10 µM is, setting by setting: under setting [3], 84.1%; under setting [4], 75%.
For the molecule `CC[C@]1(O)C[C@@H]2CN(CCc3c([nH]c4ccccc34)[C@@](C(=O)OC)(c3cc4c(cc3OC)N(C)[C@H]3[C@@](O)(C(=O)OC)[C@H](OC(C)=O)[C@]5(CC)C=CCN6CC[C@]43[C@@H]65)C2)C1.O=S(=O)(O)O` [Vinblastine (sulfate)], the “Growth Inhibition (%) at 72h, 1 µM_Exp1” value under setting [5] is reported as -20.42%. Further, the “Growth Inhibition (%) at 72h, 1 µM_Exp2” value under setting [6] was -25.23%. Besides, under setting [7], the “Growth Inhibition (%) at 72h, 10 µM_Exp1” value is recorded as 99.34%. For the same molecule, under setting [8], the “Growth Inhibition (%) at 72h, 10 µM_Exp2” value came to 78.77%.
The like results for Evocarpine were, in that order, -18.62%, -35.10%, 100.35% and 98.71%.
In the case of Evodiamine, under setting [5], the “Growth Inhibition (%) at 72h, 1 µM_Exp1” value is reported as -42.64%. In addition, under setting [6], the “Growth Inhibition (%) at 72h, 1 µM_Exp2” value was 25.77%. Further, the “Growth Inhibition (%) at 72h, 10 µM_Exp1” value under setting [7] is on record as 94.67%. The “Growth Inhibition (%) at 72h, 10 µM_Exp2” value under setting [8] turned out to be 96.80%.
